From patent US20210330693A1, “HEPARANASE INHIBITORS AND THEIR USE AS ANTI-CANCER COMPOUNDS” (Wayne State University, priority 2018, published 2021)

Tests used:
[1] = tested on: 4T1 mammary carcinoma cells; assay: 4T1 experimental metastasis assay; assay type: in vivo, BALB/c mice; conditions: IVIS imaging day 7; glycopolymer 100 μg/mouse i.p. 20 min before and together with the cells
Method: 4T1 Metastasis Assay. Luciferase-labeled 4T1 mammary carcinoma cells (1×10^5/mouse) were injected i.v. (n=6 mice/group) with vehicle alone (control, PBS), with positive control (heparin), or with GlcNS(6S)α((1,4)GlcA glycopolymer (DP=12, 100 μg/mouse) into BALB/c mice (i.p) 20 min prior to cell inoculation and also together with the cells. IVIS bioluminescent imaging was performed on day 7 after cell inoculation. For IVIS imaging, mice were injected intraperitoneally with D-luciferin substrate at 150 mg/kg and anesthetized with continuous exposure to isoflurane (EZAnesthesia, Palmer, Pa.). The experiment was repeated 3 times with similar results.
4T1 Metastasis Assay (Menhofer, et al., PLOS ONE 2014, 9, el 12542). Luciferase-labeled 4T1 breast carcinoma cells (1×10^5/mouse) were injected i.v (n=6 mice/group) with vehicle alone (control, PBS), with positive control (heparin), or with GlcNS(6S)α(1,4)GlcA glycopolymer (DP=12, 100 μg/mouse) into BALB/c mice (i.p) 20 min prior to cell inoculation and also together with the cells. IVIS bioluminescent imaging was performed on day 7 after cell inoculation. […] Light emitted from the bioluminescent cells is detected by the IVIS camera system with images quantified for tumor burden using a log-scale color range set at 5×10^4 to 1×10^7 and measurement of total photon counts per second (PPS) using Living Image software (Xenogen). […]

FGF-1 = target: T1, FGF-1 (Homo sapiens, UniProt P05230); assay: Solution-based competitive BLI assay, FGF-1; assay type: binding; conditions: competition with immobilized biotin-heparin (18 kDa), 25° C., read-out: dissociation constant (apparent Kd) to FGF-1
T1 construct: purchased R&D Systems
T1 sequence (P05230 whole entry, species assumed): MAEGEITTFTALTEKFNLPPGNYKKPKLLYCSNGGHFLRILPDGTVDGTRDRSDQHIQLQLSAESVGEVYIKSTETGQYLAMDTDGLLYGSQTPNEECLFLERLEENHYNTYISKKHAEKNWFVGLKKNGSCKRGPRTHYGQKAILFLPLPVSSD
Method: (§1) Biolayer Interferometry Cross-Bioactivity Assay. BLI assays were performed on an Octet Red Instrument (fortéBIO) at 25° C. Immobilization and binding analysis were carried out at 1000 rpm using HBS-EP buffer.
(§2) Biolayer Interferometry (BLI) Assay. BLI assays were performed on an Octet Red Instrument (fortéBIO) at 25° C. Immobilization and binding analysis were carried out at 1000 rpm using HBS-EP buffer [10 mM HEPES, pH 7.4, 150 mM NaCl, 3.0 mM EDTA, and 0.005% (v/v) surfactant tween20]. A solution affinity assay, used to determine affinities of ligands by SPR analysis, was adopted to BLI (Cochran et al., Glycoconjugate J. 2009, 26, 577-587.). In this method, protein is mixed with various concentrations of ligand (glycopolymer C5A or heparin, 18 kDa). Free protein in this equilibrium mixture is tested for binding against immobilized heparin (all proteins are carrier-free and purchased from R&D Systems). Heparin-biotin (Creative PEGworks, 18 kDa, 1 biotin per HP polymer), 5 μg/mL was immobilized on to streptavidin biosensors (fortéBio) for 5 min. Binding experiments were carried out under conditions of mass transport. Binding was fitted to equation 1 (as taught in reference Chai, et al. Anal. Biochem. 2009, 395, 263-264.) using Graphpad Prism. BLI response was used in place of F and ligand (heparin/glycopolymer C5A) concentration was used in place of [metal]. […]

FGF-2 = target: T2, FGF-2 (Homo sapiens, UniProt P09038); assay: Solution-based competitive BLI assay, FGF-2; assay type: binding; conditions: competition with immobilized biotin-heparin (18 kDa), 25° C., read-out: dissociation constant (apparent Kd) to FGF-2
T2 construct: purchased R&D Systems
T2 sequence (P09038 143-288, species assumed): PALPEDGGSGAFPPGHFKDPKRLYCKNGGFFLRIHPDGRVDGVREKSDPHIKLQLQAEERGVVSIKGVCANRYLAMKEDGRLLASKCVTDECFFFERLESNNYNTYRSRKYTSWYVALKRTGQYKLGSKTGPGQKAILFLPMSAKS
Method: as §1, §2

VEGF = target: T3, VEGF (Homo sapiens, UniProt P15692); assay: Solution-based competitive BLI assay, VEGF; assay type: binding; conditions: competition with immobilized biotin-heparin (18 kDa), 25° C., read-out: dissociation constant (apparent Kd) to VEGF
T3 construct: purchased R&D Systems
T3 sequence (P15692 27-191 isoform P15692-4): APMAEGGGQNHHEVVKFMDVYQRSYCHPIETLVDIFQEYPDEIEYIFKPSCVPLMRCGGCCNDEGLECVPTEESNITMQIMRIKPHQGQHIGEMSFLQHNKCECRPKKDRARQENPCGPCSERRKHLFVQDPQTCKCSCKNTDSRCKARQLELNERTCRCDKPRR
Method: as §1, §2

platelet factor-4 (PF4) = target: T4, platelet factor-4 (PF4) (Homo sapiens, UniProt P02776); assay: Solution-based competitive BLI assay, PF4; assay type: binding; conditions: competition with immobilized biotin-heparin (18 kDa), 25° C., read-out: dissociation constant (apparent Kd) to PF4
T4 construct: purchased R&D Systems
T4 sequence (P02776 32-101): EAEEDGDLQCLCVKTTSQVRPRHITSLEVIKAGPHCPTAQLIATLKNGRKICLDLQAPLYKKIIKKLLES
Method: as §1, §2

P-selectin = target: T5, P-selectin (Homo sapiens, UniProt P16109); assay: Solution-based competitive BLI assay, P-selectin; assay type: binding; conditions: HBS-EP buffer with 2 mM CaCl2, 2 mM MgCl2 and 0.5 mg/mL BSA
T5 construct: purchased R&D Systems
T5 sequence (P16109 42-830): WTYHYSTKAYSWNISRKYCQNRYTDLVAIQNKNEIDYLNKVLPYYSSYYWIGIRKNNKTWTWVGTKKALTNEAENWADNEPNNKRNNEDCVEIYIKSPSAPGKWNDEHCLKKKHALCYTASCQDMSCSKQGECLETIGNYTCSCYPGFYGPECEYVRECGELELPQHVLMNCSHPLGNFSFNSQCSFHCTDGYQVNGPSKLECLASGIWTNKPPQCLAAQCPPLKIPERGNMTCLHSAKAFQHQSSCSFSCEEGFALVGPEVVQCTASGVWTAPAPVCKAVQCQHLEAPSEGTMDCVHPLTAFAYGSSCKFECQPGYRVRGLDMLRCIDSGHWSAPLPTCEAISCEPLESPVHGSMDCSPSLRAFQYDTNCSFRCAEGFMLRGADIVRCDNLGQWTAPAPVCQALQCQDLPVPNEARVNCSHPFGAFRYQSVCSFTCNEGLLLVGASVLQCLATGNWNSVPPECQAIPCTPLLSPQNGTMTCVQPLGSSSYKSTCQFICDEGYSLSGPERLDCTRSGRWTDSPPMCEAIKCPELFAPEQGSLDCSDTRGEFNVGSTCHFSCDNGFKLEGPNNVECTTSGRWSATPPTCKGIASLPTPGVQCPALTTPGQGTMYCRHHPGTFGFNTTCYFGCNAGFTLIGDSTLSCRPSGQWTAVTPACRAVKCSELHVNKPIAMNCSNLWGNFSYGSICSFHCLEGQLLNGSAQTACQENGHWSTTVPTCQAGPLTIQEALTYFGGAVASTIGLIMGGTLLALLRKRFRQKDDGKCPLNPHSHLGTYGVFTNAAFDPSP
Method: as §1, §2

Kd (FGF-1) | Kd (FGF-2) | Kd (VEGF) | Kd (platelet factor-4 (PF4)) | Kd (P-selectin) | Substance | antimetastatic effect, lung metastasis of 4T1 cells [1]
 |  |  |  |  | Roneparstat | effect was similar
4.6 ± 3.3 nM | 0.15 ± 0.11 nM | 4.91 ± 1.55 nM | 0.31 ± 0.028 nM | 125 ± 152 nM | heparin [reference compound] | reduced the size of the metastasized lung tumor by half
